Source: article PMC5788404 (Journal of Medicinal Chemistry, 2017)
Entries after “also recorded” stand apart in the source; their conditions may differ. Each block holds one compound with its values, some of them ahead of it.

Key:
[1] = biological target: T1, VBC protein (VHL:ElonginB:ElonginC protein complex) (Homo sapiens, UniProt P40337); format: binding; conditions: based on FP results, GE = ΔpKd/ΔHA (heavy atoms)
T1 construct: made in house

[2] = Parallel Artificial Membrane Permeability Assay (PAMPA); format: in vitro ADME; conditions: pH 7.4, as printed in text and footnote
[3] = Intrinsic clearance (Cli) in liver microsomes; format: in vitro ADME; conditions: female CD1 mouse liver microsomes, 0.5 μM compound
HeLa cells [4] = assay: Colony formation assay; format: cell-based, Human; conditions: 150 μM
[5] = Intracellular drug concentration (accumulation in HeLa cells); format: in vitro ADME, Human; conditions: human; HeLa cell lysate, equilibrium dialysis; read-out: Fraction unbound (fu)
HeLa cells [6] = assay: as above; format: in vitro ADME, Human; conditions: HeLa cells, 50 μM, 2 h
immobilized VBC protein = biological target: T2, immobilized VBC protein (Homo sapiens, UniProt P40337); assay: biochemical; format: binding; conditions: for Dissociative t1/2: t1/2 = ln2/koff; for kon: SPR
T2 construct: made in house

HeLa cells [7] = assay: Proliferation assay; format: cell-based, Human; conditions: 150 μM, relative to DMSO vehicle
[8] = biological target: T3, VBC complex (VHL:ElonginB:ElonginC) (Homo sapiens, UniProt P40337); format: binding; conditions: for LE: LE = −RT ln Kd/NHA; for LE / LLE: on the basis of ITC results; for LLE: LLE = pKd–Log D
T3 construct: made in house

HIF-1α = assay: cells; conditions: Homo sapiens, HeLa, 2 h, read-out: HIF-1α Stabilization (Protein % levels), HeLa cells, 50 μM inhibitor, 2 h, Western blot, normalized to level observed with 1

T1 sequence (P40337 54-213): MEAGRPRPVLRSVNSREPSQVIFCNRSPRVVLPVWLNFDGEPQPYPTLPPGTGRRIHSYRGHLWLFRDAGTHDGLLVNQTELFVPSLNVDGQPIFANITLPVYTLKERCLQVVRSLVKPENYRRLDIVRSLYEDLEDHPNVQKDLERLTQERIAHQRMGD
T1 sequence (Q15369 17-112, further chain): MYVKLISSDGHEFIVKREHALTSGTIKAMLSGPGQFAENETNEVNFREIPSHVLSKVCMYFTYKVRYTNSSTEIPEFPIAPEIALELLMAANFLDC
T1 sequence (Q15370 1-104, further chain): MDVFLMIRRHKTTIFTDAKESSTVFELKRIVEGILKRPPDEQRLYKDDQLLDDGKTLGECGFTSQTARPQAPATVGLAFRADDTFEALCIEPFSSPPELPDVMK
T3 sequence (Q15369 17-112): as the sequence (Q15369 17-112, further chain) above
T3 sequence (P40337 54-213): as the sequence (P40337 54-213) above
T3 sequence (Q15370 1-104, further chain): as the sequence (Q15370 1-104, further chain) above
T2 sequence (Q15369 17-112): as the sequence (Q15369 17-112, further chain) above
T2 sequence (Q15370 1-104, further chain): as the sequence (Q15370 1-104, further chain) above
T2 sequence (P40337 54-213): as the sequence (P40337 54-213) above

Structure (SMILES): Cc1ncsc1-c1ccc(CNC(=O)[C@@H]2C[C@@H](O)CN2C(=O)[C@@H](NC(=O)C2(C#N)CC2)C(C)(C)C)cc1 [Inhibitor 15, (2S,4R)-1-((S)-2-(1-Cyanocyclopropanecarboxamido)-3,3-dimethylbutanoyl)-4-hydroxy-N-(4-(4-methylthiazol-5-yl)benzyl)pyrrolidine-2-carboxamide]
Papp at 5 h, 10 μM [2]: 1.94 ×10⁻⁶ cm/s
Microsomal stability (intrinsic clearance) [3]: 3.1 mL/min/g
toxicity in colony formation assay (HeLa cells [4]): no toxicity
fraction unbound [5]: 0.0007
Compound associated with cells (HeLa cells [6]): 150.0 µM

Structure (SMILES): CC(C)NCC(O)COc1cccc2ccccc12 (centres unmarked) [propanolol, reference compound]
Compound associated with cells (HeLa cells [6]): 2679.0 µM

Structure (SMILES): Cc1ncsc1-c1ccc(CNC(=O)[C@@H]2C[C@@H](O)CN2C(=O)[C@@H](NC(=O)C2(F)CC2)C(C)(C)C)cc1 [Inhibitor 10, (2S,4R)-1-((S)-2-(1-Fluorocyclopropanecarboxamido)-3,3-dimethylbutanoyl)-4-hydroxy-N-(4-(4-methylthiazol-5-yl)benzyl)pyrrolidine-2-carboxamide]
Papp at 5 h, 10 μM [2]: 2.71 ×10⁻⁶ cm/s
Dissociative t1/2 (immobilized VBC protein; 10°C (first value of cell)): 11.94 ± 0.08 s
Dissociative t1/2 (immobilized VBC protein; 20°C (second value of cell)): 7.073 ± 0.007 s
Microsomal stability (intrinsic clearance) [3]: 2.9 mL/min/g
toxicity in colony formation assay (HeLa cells [4]): a degree of cytotoxicity; also recorded: toxicity
toxicity in cell-proliferation assay (HeLa cells [7]): notably decreased cell proliferation; also recorded: toxicity
fraction unbound [5]: 0.0002
Compound associated with cells (HeLa cells [6]): 383.6 µM
Final free compound concentration in cells (HeLa cells [6]): 0.071 µM

Structure (SMILES): Cc1ncsc1-c1ccc(CNC(=O)[C@@H]2C[C@@H](O)CN2C(=O)[C@@H](NC(=O)C(C)(C)F)C(C)(C)C)cc1 [Inhibitor 9, (2S,4R)-1-((S)-2-(2-Fluoro-2-methylpropanamido)-3,3-dimethylbutanoyl)-4-hydroxy-N-(4-(4-methylthiazol-5-yl)benzyl)pyrrolidine-2-carboxamide]
GE (group efficiency) [1]: −0.24

Structure (SMILES): Cc1ncsc1-c1ccc(CNC(=O)[C@@H]2C[C@@H](O)CN2C(=O)[C@@H](NC(=O)C2CCC2)C(C)(C)C)cc1 [Inhibitor 18, (2S,4R)-1-((S)-2-(Cyclobutanecarboxamido)-3,3-dimethylbutanoyl)-4-hydroxy-N-(4-(4-methylthiazol-5-yl)benzyl)pyrrolidine-2-carboxamide]
GE (group efficiency) [1]: –0.07
LE [8]: 0.25 kcal × mol^-1 × NHA^-1
LLE [8]: 5.38 kcal × mol^-1 × NHA^-1
Dissociative t1/2 (immobilized VBC protein; 10°C (first value of cell)): 4.95 ± 0.01 s
Dissociative t1/2 (immobilized VBC protein; 20°C (second value of cell)): 2.71 ± 0.01 s
kon (immobilized VBC protein; 10°C): 517000 M⁻¹ s⁻¹
kon (immobilized VBC protein; 20°C): 1.1e+06 M⁻¹ s⁻¹
Microsomal stability (intrinsic clearance) [3]: 3.0 mL/min/g
fraction unbound [5]: 0.0008
Compound associated with cells (HeLa cells [6]): 204.0 µM
Final free compound concentration in cells (HeLa cells [6]): 0.093 µM

Structure (SMILES): Cc1ncsc1-c1ccc(CNC(=O)[C@@H]2C[C@@H](O)CN2C(=O)[C@@H](NC(=O)C2CC2)C(C)(C)C)cc1 [Inhibitor 6, (2S,4R)-1-((S)-2-(Cyclopropanecarboxamido)-3,3-dimethylbutanoyl)-4-hydroxy-N-(4-(4-methylthiazol-5-yl)benzyl)pyrrolidine-2-carboxamide]
GE (group efficiency) [1]: −0.02
LE [8]: 0.26 kcal × mol^-1 × NHA^-1
LLE [8]: 5.68 kcal × mol^-1 × NHA^-1

Structure (SMILES): COCCc1ccc(OCC(O)CNC(C)C)cc1 (centres unmarked) [Metoprolol, reference compound]
fraction unbound [5]: 0.005

Structure (SMILES): CC(=O)N[C@H](C(=O)N1C[C@H](O)C[C@H]1C(=O)NCc1ccc(-c2scnc2C)cc1)C(C)(C)C [Inhibitor 1]
Microsomal stability (intrinsic clearance) [3]: 0.7 mL/min/g
fraction unbound [5]: 0.0016
Compound associated with cells (HeLa cells [6]): 463.8 µM
Emax at 50 µM (HIF-1α): 100 ± 7%

Structure (SMILES): Cc1ncsc1-c1ccc(CNC(=O)[C@@H]2C[C@H](O)CN2C(=O)[C@@H](NC(=O)C2(F)CC2)C(C)(C)C)cc1 [cis-10, (2S,4S)-1-((S)-2-(1-Fluorocyclopropanecarboxamido)-3,3-dimethylbutanoyl)-4-hydroxy-N-(4-(4-methylthiazol-5-yl)benzyl)pyrrolidine-2-carboxamide]
binding to VHL ([8]; ITC and FP binding curves, Figure 2): no longer binds to VHL
toxicity in colony formation assay (HeLa cells [4]): a degree of cytotoxicity
toxicity in cell-proliferation assay (HeLa cells [7]): a degree of cytotoxicity

Structure (SMILES): Cc1ncsc1-c1ccc(CNC(=O)[C@@H]2C[C@@H](O)CN2C(=O)[C@@H](NC(=O)CO)C(C)(C)C)cc1 [Inhibitor 3, (2S,4R)-4-Hydroxy-1-((S)-2-(2-hydroxyacetamido)-3,3-dimethylbutanoyl)-N-(4-(4-methylthiazol-5-yl)benzyl)pyrrolidine-2-carboxamide]
GE (group efficiency) [1]: −0.11
LE [8]: 0.27 kcal × mol^-1 × NHA^-1
LLE [8]: 6.28 kcal × mol^-1 × NHA^-1

Structure (SMILES): Cc1ncsc1-c1ccc(CNC(=O)[C@@H]2C[C@@H](O)CN2C(=O)[C@@H](NC(=O)OC(C)(C)C)C(C)(C)C)cc1 [Inhibitor 2]
GE (group efficiency) [1]: −0.41

Structure (SMILES): Cc1ncsc1-c1ccc(CNC(=O)[C@@H]2C[C@@H](O)CN2C(=O)[C@@H](NC(=O)C(Cl)(Cl)Cl)C(C)(C)C)cc1 [Inhibitor 8, (2S,4R)-1-((S)-3,3-Dimethyl-2-(2,2,2-trichloroacetamido)butanoyl)-4-hydroxy-N-(4-(4-methylthiazol-5-yl)benzyl)pyrrolidine-2-carboxamide]
GE (group efficiency) [1]: −0.04

Further lines, results first:

GE (group efficiency) [1]: −0.48
Structure (SMILES): Cc1ncsc1-c1ccc(CNC(=O)[C@@H]2C[C@@H](O)CN2C(=O)[C@@H](N2CCCC2=O)C(C)(C)C)cc1 [Inhibitor 12, (2S,4R)-1-((S)-3,3-Dimethyl-2-(2-oxopyrrolidin-1-yl)butanoyl)-4-hydroxy-N-(4-(4-methylthiazol-5-yl)benzyl)pyrrolidine-2-carboxamide]

GE (group efficiency) [1]: −0.08
Structure (SMILES): Cc1ncsc1-c1ccc(CNC(=O)[C@@H]2C[C@@H](O)CN2C(=O)[C@@H](NC(=O)C(F)(F)F)C(C)(C)C)cc1 [Inhibitor 7, (2S,4R)-1-((S)-3,3-Dimethyl-2-(2,2,2-trifluoroacetamido)butanoyl)-4-hydroxy-N-(4-(4-methylthiazol-5-yl)benzyl)pyrrolidine-2-carboxamide]

GE (group efficiency) [1]: –0.01
LE [8]: 0.25 kcal × mol^-1 × NHA^-1
LLE [8]: 5.63 kcal × mol^-1 × NHA^-1
Papp at 5 h, 10 μM [2]: 1.5 ×10⁻⁶ cm/s
Dissociative t1/2 (immobilized VBC protein; 10°C (first value of cell)): 10.04 ± 0.01 s
Dissociative t1/2 (immobilized VBC protein; 20°C (second value of cell)): 4.101 ± 0.007 s
kon (immobilized VBC protein; 10°C): 600000 M⁻¹ s⁻¹
kon (immobilized VBC protein; 20°C): 820000 M⁻¹ s⁻¹
Microsomal stability (intrinsic clearance) [3]: 2.5 mL/min/g
fraction unbound [5]: 0.0008
Compound associated with cells (HeLa cells [6]): 100.0 µM
Final free compound concentration in cells (HeLa cells [6]): 0.046 µM
Structure (SMILES): CC(=O)C1(C(=O)N[C@H](C(=O)N2C[C@H](O)C[C@H]2C(=O)NCc2ccc(-c3scnc3C)cc2)C(C)(C)C)CC1 [Inhibitor 16, (2S,4R)-1-((S)-2-(1-Acetylcyclopropanecarboxamido)-3,3-dimethylbutanoyl)-4-hydroxy-N-(4-(4-methylthiazol-5-yl)benzyl)pyrrolidine-2-carboxamide]

GE (group efficiency) [1]: –0.05
LE [8]: 0.24 kcal × mol^-1 × NHA^-1
LLE [8]: 6.28 kcal × mol^-1 × NHA^-1
Structure (SMILES): CC(=O)NC1(C(=O)N[C@H](C(=O)N2C[C@H](O)C[C@H]2C(=O)NCc2ccc(-c3scnc3C)cc2)C(C)(C)C)CC1 [Inhibitor 17, (2S,4R)-1-((S)-2-(1-Acetamidocyclopropanecarboxamido)-3,3-dimethylbutanoyl)-4-hydroxy-N-(4-(4-methylthiazol-5-yl)benzyl)pyrrolidine-2-carboxamide]

GE (group efficiency) [1]: –0.19
Structure (SMILES): Cc1ncsc1-c1ccc(CNC(=O)[C@@H]2C[C@@H](O)CN2C(=O)[C@@H](NC(=O)C2(F)CC2)C(C)O)cc1 (stereo in doubt) [Inhibitor 14, (2S,4R)-1-((2S,3S)-2-(1-Fluorocyclopropanecarboxamido)-3-hydroxybutanoyl)-4-hydroxy-N-(4-(4-methylthiazol-5-yl)benzyl)pyrrolidine-2-carboxamide]

GE (group efficiency) [1]: −0.12
Structure (SMILES): Cc1ncsc1-c1ccc(CNC(=O)[C@@H]2C[C@@H](O)CN2C(=O)[C@@H](NC(=O)CC(C)(C)C)C(C)(C)C)cc1 [Inhibitor 5, (2S,4R)-1-((S)-2-(3,3-Dimethylbutanamido)-3,3-dimethylbutanoyl)-4-hydroxy-N-(4-(4-methylthiazol-5-yl)benzyl)pyrrolidine-2-carboxamide]
